Measured values reported in patent US20050130909A1 (priority 2002, published 2005).
Several values for one entry are separate records, joined by “and”; a condition that tells them apart may be missing. Equal values may be shown once.

Experiments:
[1] = Pharmacokinetics and renal excretion in healthy subjects; type: in vivo, human
Procedure: Blood samples were drawn into heparinized tubes and centrifuged. Plasma was separated and stored frozen at −20° C. until time of assay. Plasma and urine samples were assayed for dalbavancin using validated LC/MS/MS methods. […] The peak concentration (Cmax) values were obtained directly from the observed data. The area under the plasma concentration-time curve (AUC) was calculated using the linear trapezoidal rule. Clearance (CL) was computed as dose/AUC. The elimination half life (t1/2) was estimated by linear regression of the log-linear portion of the log concentration versus time curve. Estimates of the volume of distribution (VZ) was calculated using the regression parameters, while the volume of distribution at steady state (Vss) was calculated from the area under the first moment curve (AUMC) multiplied by the dose and divided by AUC. The cumulative amount of dalbavancin excreted in urine was determined as the integrand of the urine excretion rate (AURC). CLR, or renal clearance, was calculated as the ratio: CLR=AURC/AUC.

Gram-positive pathogen = assay: Phase II SSTI trial: microbiological response, all Gram-positive pathogens; type: in vivo, human; settings: for Success rate by pathogen: Total organisms: MITT at FU; for Microbiologic success rate (by patient): MITT population; for Eradication/presumed eradication rate, all organisms: microbiologically-evaluable population at FU
Procedure: This randomized, controlled study evaluated the safety and efficacy of two dose regimens of dalbavancin.
There were 62 patients randomized into the study; all received at least one dose of study medication. Four study populations were evaluated for safety and efficacy and were defined as follows: The intent-to-treat (ITT) population included all patients who received at least one dose of study drug (all randomized study subjects).
Microbiological outcome, a secondary efficacy variable, was assessed in the subpopulation of patients who had microbiologically documented SSTI (i.e., at least one identified baseline pathogen). A microbiologic response was assessed for each Gram-positive pathogen identified at baseline (i.e., eradication, presumed eradication, persistence, presumed persistence). For patients for whom follow-up cultures were not performed, the microbiologic responses for baseline pathogens were presumed on the basis of the clinical response. Microbiologic response by patient at the EOT and FU visits was graded as success (i.e., all Gram-positive organisms eradicated or presumed eradicated) or failure (i.e., at least one Gram-positive organism persisted or presumed to have persisted, multiple pathogens with partial eradication). At both the EOT and FU visits, colonization and superinfection were assessed. At the FU visit, a patient's bacteriological response could also include recurrence.

[2] = Stability of dalbavancin in plasma; type: in vitro ADME, human; settings: 1.5 and 90 μg/ml
bovine albumin = bovine albumin (Bos taurus, UniProt P02769); assay: Protein binding by ITC; settings: 25° C.; pH 7.4
[3] = Safety assessments in healthy subjects; type: in vivo, human
Procedure: Adverse events were recorded and assessed for severity and relationship to study drug. Laboratory data (chemistry panel, CBC with differential, urinalysis) were collected and assessed for changes from baseline and out-of-range values. ECG, physical examination, and vital signs were obtained, and changes from baseline were assessed.

streptococci = assay: In vitro antibacterial activity; type: cell-based; settings: including penicillin-resistant strains
[4] = ESI-MS analysis of multimers in solution
Procedure: Experiments were performed using an Applied Biosystem API III+ mass spectrometer equipped with a TurboIonSpray source, a Triple Quadrupole analyzer, operating in positive ion mode.
The mass spectra were obtained in electrospray positive mode on a Finnigan LCQ^Deca ion trap instrument previously tuned and calibrated in electrospray mode using Ultramark 1621, caffeine and MRFA (L-metionyl-arginyl-phenilalanyl-arginine).

HSA = HSA (Homo sapiens, UniProt P02768); assay: MALDI-TOF mass spectrometry of protein-dalbavancin complexes; type: binding; settings: ratios (1:2, 1:10)
Procedure: The samples were prepared for analysis using the dried droplet technique. Spectra were obtained on a BRUKER FLEX III, tof mass spectrometer previously tuned and calibrated using standard bovine serum albumin, acquiring and averaging spectra generated by 200 laser shots. Matrix: 9 parts of DHB-9 (2,5-dihydroxy-benzoic acid) saturated in acetonitrile/H2O (50:50), 1 part of sinapinic acid saturated in acetonitrile/H2O (50:50). 0.5 ul of sample solution and 0.5 ul of matrix solution were mixed and placed on the laser target.

[5] = Rat quantitative tissue distribution study; type: in vivo, Sprague-Dawley rats
Procedure: Quantitative tissue distribution studies were conducted to assess the tissue distribution of dalbavancin following a single IV infusion of dalbavancin to male rats.
All samples were analyzed by LSC.

rat albumin = rat albumin (Rattus norvegicus, UniProt P02770); assay: Protein binding by ITC; settings: pH 7.4
[6] = system: Miscellaneous Streptococcus and nontypeable strains; assay: Dalbavancin MIC of baseline pathogens; type: cell-based; settings: baseline isolates, MITT
Source text: (§1) The most common pathogen was S. aureus.

Streptococcus pyogenes = assay: Dalbavancin MIC of baseline pathogens; type: cell-based; settings: baseline isolates, MITT
Source text: as §1

S. aureus = assay: Dalbavancin MIC of baseline pathogens; type: cell-based; settings: baseline isolates, MITT
Source text: as §1

Group B streptococcus = assay: Dalbavancin MIC of baseline pathogens; type: cell-based; settings: baseline isolates, MITT
Source text: as §1

dipeptide (D-Ala-D-Ala) = assay: ITC, preliminary experiments; type: binding; settings: absence of serum proteins
[7] = AE possibly related, upper limit of normal 40 IU/L
[8] = single 1000 mg IV dose, healthy subjects
[9] = six healthy volunteers, single 1000 mg IV

Chain of rat albumin (P02770 25-608): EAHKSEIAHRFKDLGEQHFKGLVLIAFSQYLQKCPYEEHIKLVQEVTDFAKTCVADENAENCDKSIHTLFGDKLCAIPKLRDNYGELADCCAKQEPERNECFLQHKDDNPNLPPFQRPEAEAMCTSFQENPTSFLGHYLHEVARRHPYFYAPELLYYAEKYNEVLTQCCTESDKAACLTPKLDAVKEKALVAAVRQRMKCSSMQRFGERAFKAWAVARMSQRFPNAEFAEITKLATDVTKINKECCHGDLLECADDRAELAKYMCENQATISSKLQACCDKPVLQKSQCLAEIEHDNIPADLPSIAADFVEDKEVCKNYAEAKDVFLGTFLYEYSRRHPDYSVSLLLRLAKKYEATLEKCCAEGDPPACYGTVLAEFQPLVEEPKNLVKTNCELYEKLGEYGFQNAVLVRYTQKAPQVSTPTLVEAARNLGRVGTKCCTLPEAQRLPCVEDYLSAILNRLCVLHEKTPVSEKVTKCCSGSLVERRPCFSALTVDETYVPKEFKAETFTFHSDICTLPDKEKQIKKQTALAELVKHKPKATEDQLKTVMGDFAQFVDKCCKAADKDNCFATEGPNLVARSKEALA
Chain of HSA (P02768 25-609): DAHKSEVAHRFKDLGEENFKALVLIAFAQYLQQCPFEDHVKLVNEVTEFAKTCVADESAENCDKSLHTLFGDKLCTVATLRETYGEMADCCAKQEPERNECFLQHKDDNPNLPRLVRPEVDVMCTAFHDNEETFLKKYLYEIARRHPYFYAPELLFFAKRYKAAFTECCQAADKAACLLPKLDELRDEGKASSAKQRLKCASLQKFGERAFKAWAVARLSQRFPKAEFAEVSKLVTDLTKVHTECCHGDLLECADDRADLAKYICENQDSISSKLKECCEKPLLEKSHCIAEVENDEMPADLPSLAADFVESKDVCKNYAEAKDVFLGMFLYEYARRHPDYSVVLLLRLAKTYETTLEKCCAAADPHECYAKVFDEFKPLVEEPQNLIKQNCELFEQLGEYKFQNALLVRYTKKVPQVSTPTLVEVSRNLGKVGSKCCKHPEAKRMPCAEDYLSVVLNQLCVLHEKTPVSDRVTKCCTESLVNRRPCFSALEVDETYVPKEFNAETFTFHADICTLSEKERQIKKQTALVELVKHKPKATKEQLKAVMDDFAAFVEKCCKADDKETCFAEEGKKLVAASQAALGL
Chain of bovine albumin (P02769 25-607): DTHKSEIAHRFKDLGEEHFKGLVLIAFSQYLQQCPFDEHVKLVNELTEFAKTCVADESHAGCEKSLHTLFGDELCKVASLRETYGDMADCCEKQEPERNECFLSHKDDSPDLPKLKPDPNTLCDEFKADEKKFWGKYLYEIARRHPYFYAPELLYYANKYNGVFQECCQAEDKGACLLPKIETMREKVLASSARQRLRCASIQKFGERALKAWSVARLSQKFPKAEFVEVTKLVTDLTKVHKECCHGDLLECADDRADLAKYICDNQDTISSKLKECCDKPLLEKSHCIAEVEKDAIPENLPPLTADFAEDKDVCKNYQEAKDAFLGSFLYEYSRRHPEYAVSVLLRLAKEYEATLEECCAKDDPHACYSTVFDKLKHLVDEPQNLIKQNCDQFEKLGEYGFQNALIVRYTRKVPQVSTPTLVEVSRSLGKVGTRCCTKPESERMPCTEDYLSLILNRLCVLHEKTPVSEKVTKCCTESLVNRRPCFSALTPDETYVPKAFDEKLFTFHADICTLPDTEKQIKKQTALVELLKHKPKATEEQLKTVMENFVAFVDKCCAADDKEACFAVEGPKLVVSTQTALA

## CN[C@H]1C(=O)N[C@@H]2Cc3ccc(cc3)Oc3cc4cc(c3O[C@@H]3O[C@H](C(=O)O)[C@@H](O)[C@H](O)[C@H]3NC(=O)CCCCCCCCC(C)C)Oc3ccc(cc3Cl)[C@@H](O)[C@@H]3NC(=O)[C@H](NC(=O)[C@@H]4NC(=O)[C@@H](NC2=O)c2cc(cc(O)c2Cl)Oc2cc1ccc2O)c1ccc(O)c(c1)-c1c(O[C@H]2O[C@H](CO)[C@@H](O)[C@H](O)[C@@H]2O)cc(O)cc1[C@@H](C(=O)NCCCN(C)C)NC3=O [Dalbavancin]
[1]; Mean, single 1000 mg IV
  AURC (cumulative amount excreted in urine): 419 mg
  CL: 0.0431 ± 0.0074 L/h
  CLR: 0.018 L/h
  Vz: 16.0 L
[1]; Min, single 1000 mg IV
  CLR: 0.0130 L/h
[1]; conversion of approximately 300 mg/L
  Peak concentration of dalbavancin in man: 165 µM
[1]; immediately following end of infusion, single 1000 mg IV
  Peak plasma concentrations: approximately 300 mg/L
[1]; single intravenous infusion of 1000 mg
  Plasma concentrations maintained for at least seven days: above 45 mg/l
Gram-positive pathogen; single-dose 1100 mg
  Success rate by pathogen: Total organisms: 7/16 (43.8%)
Gram-positive pathogen; two-dose 1000/500 mg
  Success rate by pathogen: Total organisms: 14/16 (87.5%)
Gram-positive pathogen; EOT, single-dose 1100 mg
  Microbiologic success rate (by patient): 5/14 (35.7) %
Gram-positive pathogen; EOT, two-dose 1000/500 mg
  Microbiologic success rate (by patient): 10/13 (76.9) %
Gram-positive pathogen; FU, single-dose 1100 mg
  Microbiologic success rate (by patient): 3/14 (21.4) %
Gram-positive pathogen; FU, two-dose 1000/500 mg
  Microbiologic success rate (by patient): 9/13 (69.2) %
Gram-positive pathogen; microbiologically-evaluable and MITT populations, single dose of dalbavancin
  Microbiologic success rates, summary over both visits (EOT, FU): < 40%
Gram-positive pathogen; single-dose dalbavancin
  Eradication/presumed eradication rate, all organisms: 58.3% and 58%
Gram-positive pathogen; two-dose dalbavancin
  Eradication/presumed eradication rate, all organisms: 92.3% and 92%
[2]; 24 hours at room temperature
  Stability in processed plasma samples: stable after 24 hours at room temperature
[2]; three cycles of freeze-thaw
  Stability in human plasma, freeze-thaw: stable after three cycles of freeze-thaw treatment
Bovine albumin
  Apparent binding affinity Ka: 1.38 (±0.14) ×10^5 M^−1
[3]; AE possibly related, upper limit of normal 0.4×10^3/μL
  Eosinophilia, individual subject value: 500 µL⁻¹
[3]; [7]
  Elevated ALT, individual subject value: 46 IU/L and 54 IU/L
  Elevated AST, individual subject value: 42 IU/L
[3]; AE possibly related, upper limit of normal 90 IU/L
  Elevated LDH, individual subject value: 303 IU/L
[3]; single 1000 mg IV
  Post-baseline hematology, chemistry, vital signs, and ECG: No trends were seen
[3]; [8]
  Deaths or serious adverse events: No subject deaths or serious adverse events were reported
  Tolerability: well-tolerated
[3]; [9]
  AEs possibly related to study medication: Three volunteers reported AEs that were possibly related to study medication
  Adverse events, incidence and intensity: All volunteers reported at least one AE, all of mild intensity
streptococci
  Activity relative to teicoplanin or vancomycin: better activity against streptococci, including penicillin-resistant strains, than teicoplanin or vancomycin
[4]; 100 μg/mL, ammonium formate 5, 50, 100 mM pH 5, FIGS. 6-8
  Population ratio of multimer to monomer: influence of ionic strength: decrease in dalbavancin multimer to monomer population ratio
[4]; 20, 40, 60, and 80 μg/mL, FIG. 4
  Population ratio of multimer to monomer: influence of concentration: increases with increasing concentration
[4]; dalbavancin 0.1 mg/ml in 8:2 water:isopropanol, teicoplanin 50 and 100 μg/mL in water
  Multimers in solution: indicates the presence of dalbavancin multimers
[4]; pH 2.5 to 5.5, FIG. 5
  Population ratio of multimer to monomer: influence of pH: increases with increasing pH
HSA
  Complex with HSA at very high dalbavancin to protein ratios: complexes containing 2 molecules of dalbavancin per protein molecule can be observed
[5]; bile duct cannulated rats, over 384 h after the dose
  Dose recovered in the bile: ~11 % of the dose
[5]; healthy rats
  Concentrations of radioactivity in the CNS: low but detectable
[5]; male rats, single IV infusion 20 mg/kg
  Time by which all tissues had quantifiable drug-derived radioactivity: ≤ 12 h
[5]; rats
  Skin penetration: drug-derived radioactivity in skin relative to plasma: as high as or higher than in plasma
[5]; rats, through 70 days
  Tissue accumulation: did not accumulate in any single tissue, organ, or blood cellular component
Rat albumin; 25° C.
  Apparent binding affinity Ka: 3.1 (±0.5) ×10^5 M^−1
Rat albumin; 37° C.
  Apparent binding affinity Ka: 2.8 (±1.8) ×10^5 M^−1
[6]; single-dose arm
  Dalbavancin MIC: 3 (0.016) mg/L
[6]; standard of care arm
  Dalbavancin MIC: 4 (0.016) mg/L
[6]; two-dose arm
  Dalbavancin MIC: 2 (0.016) mg/L
Streptococcus pyogenes; standard of care arm
  Dalbavancin MIC: 1 (0.016) mg/L
Streptococcus pyogenes; two-dose arm
  Dalbavancin MIC: 1 (0.016) mg/L
S. aureus; single-dose arm (N = 14)
  Dalbavancin MIC: 13 (0.12) mg/L
S. aureus; standard of care arm (N = 14)
  Dalbavancin MIC range: 10 (0.016-0.25) mg/L
S. aureus; two-dose arm (N = 13)
  Dalbavancin MIC: 11 (0.12) mg/L
Group B streptococcus; standard of care arm
  Dalbavancin MIC: 2 (0.016) mg/L
Group B streptococcus; two-dose arm
  Dalbavancin MIC: 2 (0.016) mg/L
Dipeptide (D-Ala-D-Ala)
  Binding to dipeptide (D-Ala-D-Ala): no evidence of binding
